Test results taken from patent US7288541B2, “Propylcarbamate derivatives as inhibitors of serine and cysteine proteases” (SmithKline Beecham Corporation, priority 2001, dated 2007).

Biological target: T1, human cathepsin K (Homo sapiens, UniProt P43235)
T1 construct: The proform of cathepsin K was converted to mature cathepsin K by brief exposure to pH 4; made in house; host or cells: baculovirus; Trichoplusia ni High Five cells (virus raised in Sf-9)
T1 sequence (P43235 115-329): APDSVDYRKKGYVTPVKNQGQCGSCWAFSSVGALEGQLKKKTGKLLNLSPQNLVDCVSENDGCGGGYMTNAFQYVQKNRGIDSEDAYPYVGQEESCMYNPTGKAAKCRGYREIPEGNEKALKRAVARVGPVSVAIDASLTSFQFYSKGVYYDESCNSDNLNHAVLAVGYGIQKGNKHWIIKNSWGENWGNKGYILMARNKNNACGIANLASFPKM
Experiment: Cathepsin K inhibition, fluorogenic substrate Cbz-Phe-Arg-AMC, progress curve method
Format: biochemical
Conditions: not given
Protocol: All assays for cathepsin K were carried out with human and rat recombinant enzyme. Assays for cathepsins S & V were also carried out with human recombinant enzyme. Assays for human cathepsins B, H, and L were carried out with enzyme prepared from human liver tissue. […] A stock substrate solution of Cbz-Phe-Arg-AMC was prepared at a concentration of 50 mM in dimethyl sulfoxide. This substrate was diluted into the assay for a final substrate concentration of 10 μM in the rat cathepsin K, human cathepsin K, and human cathepsin B assays; a final substrate concentration of 5 μM in the human cathepsin L assay; and a final substrate concentration of 2 μM in the human cathepsin V assay.
All assays contained 10% dimethyl sulfoxide. […] All assays were conducted at 30° C. Product fluorescence (excitation at 360 nm; emission at 440 nm, (except cathepsin H which used excitation at 340 nm; emission at 420 nm)) was monitored with a PerSeptive Biosystems Cytofluor II fluorescence plate reader. Product progress curves were generated over 2.3 h monitoring the formation of 7-amino-4-methylcoumarin product (or β-naphthalamide for cathepsin H).
Human and Rat Cathepsin K:
The cells continued to grow for 72 h post-infection, before the virus was harvested by centrifugation at 1400×g for 30 min.
One and one-half liters of Trichoplusia ni (T. ni) High Five (TM) cells [JRH Biosciences, Woodland, Calif. […] The cells were grown for 24 h at 28° C., 50 RPM, and 50% dissolved oxygen. […] Media were separated from cells at a rate of 1 L/min using the Centritech 100 (TM) continuous-flow centrifuge (DuPont) operating at 200×g.
Protein Purification: Media (human and rat) were filtered through a Whatman 3 filter, and then loaded onto a 25 mL Poros HS II (26 mm×47 mm) cation exchange column equilibrated in 25 mM sodium acetate at pH 5.5 (equilibration buffer). The column was washed until the absorbance reached the baseline value, and then the protein was eluted with a linear gradient from 0–2 M sodium chloride in the equilibration buffer. Column fractions were analyzed by SDS-PAGE, N-terminal sequencing, and mass spectrometry. Fractions containing the proform of cathepsin K were pooled and frozen at −80° C. The proform was concentrated in an Amicon Centriprep 10 and fractionated with a Superdex 75 column (26 mm×600 mm, Pharmacia) equilibrated in 400 mM sodium chloride, 25 mM sodium acetate at pH 5.5.
Cathepsin K Activation: The proform of cathepsin K was converted to mature cathepsin K by brief exposure to pH 4 in the presence of 5 mM L-cysteine. Typically, 5 mM L-cysteine was added to 10 mL of approximately 1 mg/mL procathepsin K. One mL of this solution was diluted ten-fold into 450 mM sodium acetate at pH 4.0 containing 5 mM L-cysteine. This solution was reacted at 23° C. for 2 min before neutralization with 2 mL 1.8 M sodium acetate at pH 6.0. The neutralized sample was added to the remaining 9 mL of procathepsin K. The mixture was incubated at 4° C. for 2–3 days. The activated cathepsin K was chromatographed on a Poros HS II column as described above.
Potential inhibitors were evaluated using the progress curve method. Assays were carried out in the presence of variable concentrations of test compound. Reactions were initiated by addition of buffered solutions of inhibitor and substrate to enzyme. Data analysis was conducted according to one of two procedures depending on the appearance of the progress curves in the presence of inhibitors. […] Ki values were calculated from IC50 values using equation 2 assuming a competitive model.

IC50 [nM] | SMILES
1000 to 10000 | CCCC[C@H](NC(=O)O[C@H](Cn1ccc(-c2ccc(C(F)(F)F)cc2)n1)C(C)(C)C)C(=O)CNC(=O)N1CCOCC1 [Example 4, (1S)-2,2-dimethyl-1-({3-[4-(trifluoromethyl)phenyl]-1H-pyrazol-1-yl}methyl)propyl (1S)-1-{[(4-morpholinylcarbonyl)amino]acetyl}pentylcarbamate]

Same assay, conditions: Table 1, Inhibition of Cathepsin K (Ki in nM); recombinant human enzyme, 10 μM substrate, pH 5.5, 30° C.; read-out: hCat K IC50

IC50 [nM] | SMILES
10 to 100 | CC(C)(C)[C@@H](Cn1ccc(-c2ccc(C(F)(F)F)cc2)n1)OC(=O)NCC(=O)CNS(=O)(=O)c1ccccn1 [Example 1, (1S)-2,2-dimethyl-1-({3-[4-(trifluoromethyl)phenyl]-1H-pyrazol-1-yl}methyl)propyl 2-oxo-3-[(2-pyridinylsulfonyl)amino]propylcarbamate]
10 to 100 | C[C@H](NC(=O)O[C@H](Cn1ccc(-c2ccc(C(F)(F)F)cc2)n1)C(C)(C)C)C(=O)CNS(=O)(=O)c1ccccn1 [Example 2, (1S)-2,2-dimethyl-1-({3-[4-(trifluoromethyl)phenyl]-1H-pyrazol-1-yl}methyl)propyl (1S)-1-methyl-2-oxo-3-[(2-pyridinylsulfonyl)amino]propylcarbamate]
10 to 100 | CCCC[C@H](NC(=O)O[C@H](Cn1ccc(-c2ccc(C(F)(F)F)cc2)n1)C(C)(C)C)C(=O)CNS(=O)(=O)c1ccccn1 [Example 3, (1S)-2,2-dimethyl-1-({3-[4-(trifluoromethyl)phenyl]-1H-pyrazol-1-yl}methyl)propyl (1S)-1-{[(2-pyridinylsulfonyl)amino]acetyl}pentylcarbamate]
< 10 | CCCC[C@H](NC(=O)O[C@H](Cn1ccc(-c2ccc(C(F)(F)F)cc2)n1)C(C)(C)C)C(=O)CNc1cccc(F)n1 [Example 5, (1S)-2,2-dimethyl-1-({3-[4-(trifluoromethyl)phenyl]-1H-pyrazol-1-yl}methyl)propyl (1S)-1-{[(6-fluoro-2-pyridinyl)amino]acetyl}pentylcarbamate]
10 to 100 | CCCC[C@H](NC(=O)O[C@H](Cn1ccc(C(F)(F)F)n1)C(C)(C)C)C(=O)CNS(=O)(=O)c1ccccn1 [Example 7, (1S)-2,2-dimethyl-1-{[3-(trifluoromethyl)-1H-pyrazol-1-yl]methyl}propyl (1S)-1-{[(2-pyridinylsulfonyl)amino]acetyl}pentylcarbamate]
100 to 1000 | C[C@H](NC(=O)O[C@H](Cn1ccc(C(F)(F)F)n1)C(C)(C)C)C(=O)CNS(=O)(=O)c1ccccn1 [Example 8, (1S)-2,2-dimethyl-1-{[3-(trifluoromethyl)-1H-pyrazol-1-yl]methyl}propyl (1S)-1-methyl-2-oxo-3-[(2-pyridinylsulfonyl)amino]propylcarbamate]
10 to 100 | CCCC[C@H](NC(=O)O[C@H](c1nc2cc(C(F)(F)F)ccc2s1)C(C)(C)C)C(=O)CNS(=O)(=O)c1ccccn1 [Example 9, (1S)-2,2-dimethyl-1-[5-(trifluoromethyl)-1,3-benzothiazol-2-yl]propyl (1S)-1-{[(2-pyridinylsulfonyl)amino]acetyl}pentylcarbamate]
100 to 1000 | C[C@H](NC(=O)O[C@H](c1nc2cc(C(F)(F)F)ccc2s1)C(C)(C)C)C(=O)CNS(=O)(=O)c1ccccn1 [Example 10, (1S)-2,2-dimethyl-1-[5-(trifluoromethyl)-1,3-benzothiazol-2-yl]propyl (1S)-1-methyl-2-oxo-3-[(2-pyridinylsulfonyl)amino]propylcarbamate]
10 to 100 | CCCC[C@H](NC(=O)O[C@H](Cn1cc(-c2ccc(C(F)(F)F)cc2)cn1)C(C)(C)C)C(=O)CNS(=O)(=O)c1ccccn1 [Example 11, (1S)-2,2-dimethyl-1-({4-[4-(trifluoromethyl)phenyl]-1H-pyrazol-1-yl}methyl)propyl (1S)-1-{[(2-pyridinylsulfonyl)amino]acetyl}pentylcarbamate]
10 to 100 | CCCC[C@H](NC(=O)O[C@H](Cn1nccc1-c1ccc(C(F)(F)F)cc1)C(C)(C)C)C(=O)CNS(=O)(=O)c1ccccn1 [Example 12, (1S)-2,2-dimethyl-1-({5-[4-(trifluoromethyl)phenyl]-1H-pyrazol-1-yl}methyl)propyl (1S)-1-{[(2-pyridinylsulfonyl)amino]acetyl}pentylcarbamate]
< 10 | CCCC[C@H](NC(=O)O[C@H](Cn1ccc(-c2cccnc2)n1)C(C)(C)C)C(=O)CNS(=O)(=O)c1ccccn1 [Example 13, (1S)-2,2-dimethyl-1-{[3-(3-pyridinyl)-1H-pyrazol-1-yl]methyl}propyl (1S)-1-{[(2-pyridinylsulfonyl)amino]acetyl}pentylcarbamate]
< 10 | CCCC[C@H](NC(=O)O[C@H](Cn1ccc(-c2ccncc2)n1)C(C)(C)C)C(=O)CNS(=O)(=O)c1ccccn1 [Example 14, (1S)-2,2-dimethyl-1-{[3-(4-pyridinyl)-1H-pyrazol-1-yl]methyl}propyl (1S)-1-{[(2-pyridinylsulfonyl)amino]acetyl}pentylcarbamate]
< 10 | CCCC[C@H](NC(=O)O[C@H](Cn1cnc2cc(Cl)c(Cl)cc21)C(C)(C)C)C(=O)CNS(=O)(=O)c1ccccn1 [Example 15, (1S)-1-[(5,6-dichloro-1H-benzimidazol-1-yl)methyl]-2,2-dimethylpropyl (1S)-1-{[(2-pyridinylsulfonyl)amino]acetyl}pentylcarbamate]
< 10 | CC(C)(C)[C@@H](Cn1cnc2cc(Cl)c(Cl)cc21)OC(=O)NCC(=O)CNS(=O)(=O)c1ccccn1 [Example 17, (1S)-1-[(5,6-dichloro-1H-benzimidazol-1-yl)methyl]-2,2-dimethylpropyl 2-oxo-3-[(2-pyridinylsulfonyl)amino]propylcarbamate]
< 10 | CCCC[C@H](NC(=O)O[C@H](Cn1cnc(-c2ccc(C(F)(F)F)cc2)c1)C(C)(C)C)C(=O)CNS(=O)(=O)c1ccccn1 [Example 18, (1S)-2,2-dimethyl-1-({4-[4-(trifluoromethyl)phenyl]-1H-imidazol-1-yl}methyl)propyl (1S)-1-{[(2-pyridinylsulfonyl)amino]acetyl}pentylcarbamate]
< 10 | CCCC[C@H](NC(=O)O[C@H](COc1ccc(-n2ccnc2)cc1)C(C)(C)C)C(=O)CNS(=O)(=O)c1ccccn1 [Example 19, (1S)-1-{[4-(1H-imidazol-1-yl)phenoxy]methyl}-2,2-dimethylpropyl (1S)-1-{[(2-pyridinylsulfonyl)amino]acetyl}pentylcarbamate]
